Publication PMC8286831, “Identifying SARS-CoV-2 antiviral compounds by screening for small molecule inhibitors of nsp13 helicase” (Biochemical Journal, 2021)
Where two headings read alike, the source gives them in different places.

Experiments:
[1] = biological target: T1, SARS-CoV-2 RdRp holoenzyme (Severe acute respiratory syndrome coronavirus 2, UniProt P0DTD1); experiment: FRET-based RdRp strand displacement assay; assay type: biochemical
T1 construct: (Sf nsp12-3F/7L8 preincubated with Sf 7H8 at a 1:3 ratio); 3F (3xFlag) (C); made in house; host or cells: 'Sf', read as Spodoptera frugiperda insect cells (my inference from the prefix); details are in Bertolin et al

[2] = biological target: SARS-CoV-2 nsp13 helicase (Severe acute respiratory syndrome coronavirus 2, UniProt P0DTD1); experiment: biochemical; assay type: biochemical; conditions: for nsp13 inhibition and detergent sensitivity: presence or absence of non-ionic detergent
[3] = RNA (RdRp substrate), 0.3 mM each NTP, 0.02% Tween-20 in RdRp assay buffer, read-out: IC50 RdRp
[4] = IC50 0.02% Tween-20 + (presence)
[5] = IC50 0.02% Tween-20 − (absence)
[6] = RNA (nsp13 substrate), 0.3 mM ATP, 0.02% Tween-20 in RdRp assay buffer, read-out: IC50 nsp13
[7] = RNA (RdRp substrate), 0.3 mM each NTP, 0.02% Tween-20 in RdRp assay buffer
[8] = RNA (nsp13 substrate), 0.3 mM ATP, 0.02% Tween-20 in RdRp assay buffer
[9] = read-out: IC50 + 0.02% Tween-20

CC(C)(Sc1ccc(CCN(CCCCC2CCCCC2)C(=O)NC2CCCCC2)cc1)C(=O)O [GW7647]
IC50 [1, 3]: 32 µM
IC50 [2, 4]: 25 µM
IC50 [2, 5]: 2.3 µM
IC50 ([2]; IC50 + 0.02% Tween-20): 27 µM
IC50 ([2]; IC50 No detergent): 5.9 µM
IC50 [2, 6]: 39 µM

Cc1cc2c(C(C)C)c(O)c(O)c(C=O)c2c(O)c1-c1c(C)cc2c(C(C)C)c(O)c(O)c(C=O)c2c1O [Gossypol]
IC50 [1]: 17 µM
IC50 [2, 4]: 31 µM
IC50 [2, 5]: 1.3 µM
IC50 ([2]; IC50 + 0.02% Tween-20): 30 µM
IC50 ([2]; IC50 No detergent): 1.9 µM
IC50 [2, 6]: 26 µM

COc1c2c3c4c(c(OC)c(=O)c5c(O)cc(OC)c(c6c(OC)cc(O)c(c1=O)c63)c54)[C@@H](C(C)=O)[C@@](C)(O)C2 [Hypocrellin A]
IC50 ([2]; IC50 + 0.02% Tween-20): > 250 µM
IC50 ([2]; IC50 No detergent): 12 µM
nsp13 inhibition and detergent sensitivity [2]: clear inhibition only in the absence of detergent

COc1cc(C(=O)O)ccc1NC(=O)[C@@H]1N[C@@H](CC(C)(C)C)[C@](C#N)(c2ccc(Cl)cc2F)[C@H]1c1cccc(Cl)c1F [Idasanutlin]
IC50 [1, 3]: 36 µM
IC50 [2, 4]: 11 µM
IC50 [2, 5]: 2.3 µM
IC50 [2, 6]: 19 µM

Nc1nc2c(c(=O)[nH]1)N(C=O)C(CNc1ccc(C(=O)N[C@@H](CCC(=O)O)C(=O)O)cc1)CN2 (some centres unmarked) [Leucovorin Calcium]
IC50 RdRp [1, 7]: No inhibition
IC50 ([2]; IC50 + 0.02% Tween-20): > 250 µM
IC50 ([2]; IC50 No detergent): > 250 µM
IC50 nsp13 [2, 8]: No inhibition

CS(=O)(=O)c1cccc(C[C@H](NC(=O)c2c(Cl)cc3c(c2Cl)CCN(C(=O)c2ccc4ccoc4c2)C3)C(=O)O)c1 [Lifitegrast]
IC50 + 0.02% Tween-20 [2]: No inhibition
IC50 No detergent [2]: No inhibition

Cc1ccc(F)c(NC(=O)Nc2ccc(-c3cccc4[nH]nc(N)c34)cc2)c1 [Linifanib/ABT-869, Linifanib]
IC50 RdRp [1, 7]: No inhibition
IC50 ([2]; IC50 + 0.02% Tween-20): 230 µM
IC50 ([2]; IC50 No detergent): 26 µM
IC50 nsp13 [2, 8]: No inhibition

CCCCC/C=C\C/C=C\CCCCCCCC(=O)O [Linoleic acid]
IC50 RdRp [1, 7]: No inhibition
IC50 [2, 4]: 36 µM
IC50 [2, 5]: 4.3 µM
IC50 ([2]; IC50 + 0.02% Tween-20): 38 µM
IC50 ([2]; IC50 No detergent): 11 µM
IC50 nsp13 [2, 8]: No inhibition
nsp13 inhibition and detergent sensitivity [2]: strong sensitivity to detergents

O=C1c2c(O)ccc(O)c2C(=O)c2c(NCCNCCO)ccc(NCCNCCO)c21 [Mitoxantrone]
IC50 + 0.02% Tween-20 [2]: Quenching
IC50 No detergent [2]: Quenching

CC1(C)CCC(c2ccc(Cl)cc2)=C(CN2CCN(c3ccc(C(=O)NS(=O)(=O)c4ccc(N[C@H](CCN5CCOCC5)CSc5ccccc5)c(S(=O)(=O)C(F)(F)F)c4)cc3)CC2)C1 [Navitoclax]
IC50 [1, 3]: 92 µM
IC50 [2, 4]: > 250 µM
IC50 [2, 5]: 0.74 µM
IC50 ([2]; IC50 + 0.01% Triton X-100): 7.3 µM
IC50 ([2]; IC50 + 0.02% Tween-20): > 250 µM
IC50 ([2]; IC50 -Triton X-100): 2.2 µM
IC50 ([2]; IC50 No detergent): 1.2 µM
IC50 [2, 6]: > 100 µM
nsp13 inhibition and detergent sensitivity [2]: strong sensitivity to detergents

CCCc1c2oc(C(=O)O)cc(=O)c2cc2c(=O)cc(C(=O)O)n(CC)c12 [Nedocromil]
IC50 + 0.02% Tween-20 [2]: No inhibition
IC50 No detergent [2]: No inhibition

CCCCCCCC/C=C\CCCCCCCC(=O)O [Oleic acid]
IC50 RdRp [1, 7]: No inhibition
IC50 [2, 4]: 117 µM
IC50 [2, 5]: 14 µM
IC50 ([2]; IC50 + 0.02% Tween-20): 58 µM
IC50 ([2]; IC50 No detergent): 6.8 µM
IC50 nsp13 [2, 8]: No inhibition

O=C(N[C@H]1CCS[C@H]2CCC[C@@H](C(=O)O)N2C1=O)[C@@H](S)Cc1ccccc1 [Omapatrilat]
IC50 + 0.02% Tween-20 [2]: No inhibition
IC50 ([2]; IC50 No detergent): > 250 µM

COc1cc(C(N)=O)ccc1NC(=O)[C@@H]1N[C@@H](CC(C)(C)C)[C@@]2(C(=O)Nc3cc(Cl)ccc32)[C@H]1c1cccc(Cl)c1F [RO8994]
IC50 RdRp [1, 7]: No inhibition
IC50 nsp13 [2]: No inhibition
IC50 [2, 9]: > 250 µM
IC50 ([2]; read-out: IC50 No detergent): 2.9 µM

COc1cccc(NC(=O)/C=C/c2ccc(Cl)cc2)c1 [SB-366791]
IC50 RdRp [1, 7]: No inhibition
IC50 nsp13 [2, 8]: No inhibition
IC50 [2, 9]: > 250 µM
IC50 ([2]; read-out: IC50 No detergent): > 250 µM

CN1Cc2sccc2C(c2ccc(O)c(O)c2)C1 (centres unmarked) [SKF 89145]
IC50 + 0.02% Tween-20 [2]: No inhibition
IC50 No detergent [2]: No inhibition

Cc1cc(OCCCS(C)(=O)=O)cc(C)c1-c1cccc(COc2ccc3c(c2)OC[C@H]3CC(=O)O)c1 [TAK875, Fasiglifam]
IC50 ([2]; IC50 + 0.02% Tween-20): 72 µM
IC50 ([2]; IC50 No detergent): 19 µM
nsp13 inhibition and detergent sensitivity [2]: clear inhibition only in the absence of detergent

O=C1CC(=O)c2c(Cl)c(Cl)c(Cl)c(Cl)c21 [TCID]
IC50 [1, 3]: 35 µM
IC50 ([2]; read-out: IC50 0.02% Tween-20 + (presence)): 15 µM
IC50 ([2]; read-out: IC50 0.02% Tween-20 − (absence)): 1.9 µM
IC50 [2, 9]: 24 µM
IC50 ([2]; read-out: IC50 No detergent): 8.1 µM
IC50 ([2]; read-out: IC50 nsp13): 21 µM

CC(C)c1ccccc1Cc1cc(C(=O)Nc2ccc(S(=O)(=O)c3ccccc3C(C)(C)C)cc2)c(O)c(O)c1O [TW-37]
IC50 [1, 3]: 27 µM
IC50 [2, 9]: 109 µM
IC50 ([2]; read-out: IC50 No detergent): 2.8 µM
IC50 ([2]; read-out: IC50 nsp13): 39 µM
